Converted amounts (≈) assume the structure as drawn.
Tests used:
E. coli 25922 = experiment: Antibacterial activity, microbroth dilution MIC (Table 1); type: cell-based, Escherichia coli; details: Escherichia coli; microbroth dilution; control Gram-negative E. coli 25922 strain; read-out: MIC, 25922
Method in brief: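 In a microbroth dilution test, the minimum inhibitory concentration was defined as the lowest compound level preventing growth seen by eye, and was given in μg/mL.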

[1] = tested on: Escherichia coli (E. coli) BAS849; experiment: as above; type: cell-based; details: microbroth dilution, super sensitive Gram-negative E. coli BAS849, read-out: MIC, BAS849
Method in brief: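 Using broth microdilution, MIC endpoints (μg/mL) mark where visible growth no longer appears; the panel spans sensitive and control Gram-negative strains plus a Gram-positive strain.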

[2] = tested on: Staphylococcus aureus (S. aureus) 29213; experiment: as above; type: cell-based; details: microbroth dilution, Gram-positive S. aureus 29213, read-out: MIC, 29213
Method in brief: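 Broth microdilution against S. aureus 29213, E. coli 25922 and hypersensitive E. coli BAS849. MIC in μg/mL is the lowest drug concentration preventing macroscopically visible growth under test conditions.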

E. coli LZ3111 = experiment: Antibacterial activity, MIC, quinolone resistant strain (Table 2); type: cell-based; details: Escherichia coli, LZ3111, read-out: MIC LZ3111
Method in brief: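 Growth inhibition assessed by serial drug dilution in broth; endpoint was absence of macroscopically visible growth, reported as MIC, μg/mL.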

| Compound | MIC (E. coli 25922) [µg/mL] | MIC [1] [µg/mL] | MIC [2] [µg/mL] | MIC (E. coli LZ3111) [µg/mL] |
| --- | --- | --- | --- | --- |
| CCc1cc(C(=O)O)c(=O)[nH]c1-c1ccc2c(c1)cc(CN[C@@H](CC)c1ccccc1)n2C [Cpd 119, (S)-5-ethyl-6-(1-methyl-2-((1-phenylpropylamino)methyl)-1H-indol-5-yl)-2-oxo-1,2-dihydropyridine-3-carboxylic acid] | 1 to 3.5 (≈ 2.25 to 7.89 µM) | < 1 | 3.5 to 12.5 (≈ 7.89 to 28.2 µM) | 12.5 to 150 (≈ 28.2 to 338 µM) |
| CCc1cc(C(=O)O)c(=O)[nH]c1-c1ccc2c(c1)cc(CNCc1ccccn1)n2C [Cpd 120, 5-ethyl-6-(1-methyl-2-((pyridin-2-ylmethylamino)methyl)-1H-indol-5-yl)-2-oxo-1,2-dihydropyridine-3-carboxylic acid] | < 1 | < 1 | 3.5 to 12.5 (≈ 8.4 to 30 µM) | 12.5 to 150 (≈ 30 to 360 µM) |
| CCc1cc(C(=O)O)c(=O)[nH]c1-c1ccc2c(c1)cc(CN1CC[C@H](N)C1)n2C [Cpd 126, (S)-6-(2-((3-aminopyrrolidin-1-yl)methyl)-1-methyl-1H-indol-5-yl)-5-ethyl-2-oxo-1,2-dihydropyridine-3-carboxylic acid] | 12.5 to 150 (≈ 31.7 to 380 µM) | 3.5 to 12.5 (≈ 8.87 to 31.7 µM) | 12.5 to 150 (≈ 31.7 to 380 µM) | 12.5 to 150 (≈ 31.7 to 380 µM) |
| CCc1cc(C(=O)O)c(=O)[nH]c1-c1ccc2c(c1)cc(CN1CCC(NC)C1)n2C (stereo not drawn) [Cpd 127, 5-ethyl-6-(1-methyl-2-((3-(methylamino)pyrrolidin-1-yl)methyl)-1H-indol-5-yl)-2-oxo-1,2-dihydropyridine-3-carboxylic acid] | 12.5 to 150 (≈ 30.6 to 367 µM) | 1 to 3.5 (≈ 2.45 to 8.57 µM) | 12.5 to 150 (≈ 30.6 to 367 µM) | 12.5 to 150 (≈ 30.6 to 367 µM) |
| CCc1cc(C(=O)O)c(=O)[nH]c1-c1ccc2c(c1)cc(CN1CCC(N(C)C)C1)n2C (stereo not drawn) [Cpd 128, 6-(2-((3-(dimethylamino)pyrrolidin-1-yl)methyl)-1-methyl-1H-indol-5-yl)-5-ethyl-2-oxo-1,2-dihydropyridine-3-carboxylic acid] | 1 to 3.5 (≈ 2.37 to 8.28 µM) | < 1 | 12.5 to 150 (≈ 29.6 to 355 µM) | 12.5 to 150 (≈ 29.6 to 355 µM) |
| CCc1cc(C(=O)O)c(=O)[nH]c1-c1ccc2c(c1)cc(CN1CCc3ccccc3C1)n2C [Cpd 134, 6-(2-((3,4-dihydroisoquinolin-2(1H)-yl)methyl)-1-methyl-1H-indol-5-yl)-5-ethyl-2-oxo-1,2-dihydropyridine-3-carboxylic acid] | 1 to 3.5 (≈ 2.26 to 7.93 µM) | < 1 | 3.5 to 12.5 (≈ 7.93 to 28.3 µM) | 12.5 to 150 (≈ 28.3 to 340 µM) |
| CCc1cc(C(=O)O)c(=O)[nH]c1-c1ccc2c(c1)cc(CN1Cc3cccnc3C1)n2C [Cpd 135, 6-(2-((5H-pyrrolo[3,4-b]pyridin-6(7H)-yl)methyl)-1-methyl-1H-indol-5-yl)-5-ethyl-2-oxo-1,2-dihydropyridine-3-carboxylic acid] | 3.5 to 12.5 (≈ 8.17 to 29.2 µM) | < 1 | 12.5 to 150 (≈ 29.2 to 350 µM) | 12.5 to 150 (≈ 29.2 to 350 µM) |
| CCc1cc(C(=O)O)c(=O)[nH]c1-c1ccc2c(c1)cc(CN1CC3CCCNC3C1)n2C (stereo not drawn) [Cpd 136, 5-ethyl-6-(1-methyl-2-((tetrahydro-1H-pyrrolo[3,4-b]pyridin-6(2H,7H,7aH)-yl)methyl)-1H-indol-5-yl)-2-oxo-1,2-dihydropyridine-3-carboxylic acid] | 3.5 to 12.5 (≈ 8.05 to 28.8 µM) | 1 to 3.5 (≈ 2.3 to 8.05 µM) | 12.5 to 150 (≈ 28.8 to 345 µM) | 12.5 to 150 (≈ 28.8 to 345 µM) |
| CCc1cc(C(=O)O)c(=O)[nH]c1-c1ccc2c(c1)cc(CN1C[C@@H](C)O[C@@H](C)C1)n2C [Cpd 138, 6-(2-((cis-2,6-dimethylmorpholino)methyl)-1-methyl-1H-indol-5-yl)-5-ethyl-2-oxo-1,2-dihydropyridine-3-carboxylic acid] | 3.5 to 12.5 (≈ 8.26 to 29.5 µM) | < 1 | 12.5 to 150 (≈ 29.5 to 354 µM) | 12.5 to 150 (≈ 29.5 to 354 µM) |
| CCc1cc(C(=O)O)c(=O)[nH]c1-c1ccc2c(c1)cc(CN1CCNCC1)n2C [Cpd 139, 5-ethyl-6-(1-methyl-2-(piperazin-1-ylmethyl)-1H-indol-5-yl)-2-oxo-1,2-dihydropyridine-3-carboxylic acid] | 12.5 to 150 (≈ 31.7 to 380 µM) | 1 to 3.5 (≈ 2.54 to 8.87 µM) | 12.5 to 150 (≈ 31.7 to 380 µM) | 12.5 to 150 (≈ 31.7 to 380 µM) |
| CCc1cc(C(=O)O)c(=O)[nH]c1-c1ccc2c(c1)cc(CN1CCN(C(C)C)CC1)n2C [Cpd 141, 5-ethyl-6-(2-((4-isopropylpiperazin-1-yl)methyl)-1-methyl-1H-indol-5-yl)-2-oxo-1,2-dihydropyridine-3-carboxylic acid] | 1 to 3.5 (≈ 2.29 to 8.02 µM) | < 1 | 12.5 to 150 (≈ 28.6 to 344 µM) | 12.5 to 150 (≈ 28.6 to 344 µM) |
| CCc1cc(C(=O)O)c(=O)[nH]c1-c1ccc2c(c1)cc(CN1CC3CC1CN3)n2C (stereo not drawn) [Cpd 142, 6-(2-(2,5-diazabicyclo[2.2.1]heptan-2-ylmethyl)-1-methyl-1H-indol-5-yl)-5-ethyl-2-oxo-1,2-dihydropyridine-3-carboxylic acid] | 12.5 to 150 (≈ 30.8 to 369 µM) | 3.5 to 12.5 (≈ 8.61 to 30.8 µM) | 12.5 to 150 (≈ 30.8 to 369 µM) | 12.5 to 150 (≈ 30.8 to 369 µM) |

From US9409905B2, “Antibacterial compounds and methods for use” (PTC THERAPEUTICS, INC., priority 2011, dated 2016)
